Entries after “also recorded” stand apart in the source; their conditions may differ.

Data set [1] concerns MPTP-induced PD-LID model rhesus monkeys. In words: Number of blinks (eye tracking) after L-DOPA in MPTP-induced PD-LID model rhesus monkeys. It counts as in vivo, rhesus monkey.
The test system is the same in data set [2]. Description: Dyskinesia score and generalized dyskinesia score in MPTP-induced PD-LID model rhesus monkeys. Type of data set: in vivo, rhesus monkey.
Another data set deals with PD-LID model rats. In words: Striatal dopamine release by microdialysis in PD-LID model rats. Type of data set: in vivo, rat. As to conditions: levodopa i.p. The procedure:
As a representative experimental model for Parkinson's disease, a rat striatal dopaminergic neuron destruction model is known in which 6-hydroxydopamine (hereinafter sometimes referred to as “6-OHDA”) is locally administered to one side of the brain (6-OHDA unilateral treated rat (6-OHDA injured rat)). Male Wistar rats (12 weeks old, Japan SLC, Inc.) were used to prepare model animals. Desipramine hydrochloride (25 mg/kg; Wako Pure Chemical Industries, Ltd.) was intraperitoneally administered, and 30 minutes after the administration, inhalation anesthesia with isoflurane was performed using a general anesthesia machine for experimental animals. Under isoflurane anesthesia, the rat was fixed in a stereotaxic apparatus, the skin of the head was incised with a surgical scalpel to expose the cranial bone, and the coordinate of bregma, which is the starting point (AP: 0, ML: 0, DV: 0), was confirmed, and the coordinate of the right medial forebrain bundle (AP: −4.4 mm, ML: 1.5 mm, DV: 7.8 mm from bregma) was measured. […]
In order to measure striatal dopamine release, guide cannula implantation into the striatum of PD-LID model rats and chromatography were performed by a method described in a reference (Pharmacol Res Perspect. 2015 June; 3(3): e00142.). […] Using an HPLC-ECD system (EiCOM Co., Ltd.), the amount of dopamine in the collected dialysate was measured. […]

[3] abbreviates: L-DOPA 22 mg/kg with Benserazide, oral.

For the molecule `N[C@@H](Cc1ccc(O)c(O)c1)C(=O)O` [L-DOPA, (S)-2-amino-3-(3,4-dihydroxyphenyl) propanoic acid], the “total number of blinks compared to vehicle” value in data set [1] (30 to 120 minutes after administration (60 to 150 minutes after start of measurement), one individual) is on record as “tended to increase; also recorded: clear tendency to increase”. Also, in data set [1] (L-DOPA 22 mg/kg with Benserazide 1/4 weight, oral, blinks tallied every 3 minutes), the “time after administration from which the number of blinks increased” value was “about 30 minutes”. Besides, the “time of peak of number of blinks with an intermediate duration (0.16≤T<0.18)” value in data set [1] (after oral L-DOPA 22 mg/kg, rapid decrease, then gradual increase) is on record as “around 30 minutes”. Besides, in data set [2] (setting [3]), the “time after administration at which the dyskinesia score increased” value was “about 20 minutes”, the “time after administration from which the score of generalized dyskinesia declined” value was “around 150 minutes”, the “time after administration from which the score of generalized dyskinesia increased” value came out at 60 min and the “time after administration of the peak dyskinesia score” value was 60 min. In addition, the “time after administration of the peak score of generalized dyskinesia” value in data set [2] (setting [3]) is listed as “around 90 minutes”. Besides, the “decay of the dyskinesia score” value in data set [2] (L-DOPA 22 mg/kg with Benserazide, oral, measured for 180 minutes) is “did not decay until 180 minutes”.

For the molecule `O=C1[C@@H]2[C@H]3CC[C@H](C3)[C@@H]2C(=O)N1CCCCN1CCN(c2ncccn2)CC1` [tandospirone], the “rapid changes and temporal decreases in the dopamine amount in the synaptic cleft in the striatum” value with PD-LID model rats is on record as “suppresses”. The dyskinesia score entry in data set [2] (tandospirone ointment transdermal 19 hours prior to testing, with L-DOPA, vs non-tandospirone administration) is “decrease”.

(Values after US20240159780A1, “PREDICTION OF AMOUNT OF IN VIVO DOPAMINE ETC., AND APPLICATION THEREOF” (Sumitomo Pharma Co., Ltd., priority 2021, published 2024).)
